Laboratory results: patent US20250213627A1, “RECOMBINANT MICROORGANISM-BASED METHODS AND COMPOSITIONS FOR TREATMENT OF DISEASE” (Baylor College of Medicine, priority 2021, published 2025)

Assays:
[1] = Bioavailability and pharmacokinetics of ShK-235 in circulation of healthy rats; assay type: in vivo, rat
Method: To test whether the intestinal environment interferes with LrS235 secretion of ShK-235, or prevents it from crossing into the circulation, healthy rats were gavaged with a single bolus of 1×10^9 CFU of either LrGusA or LrS235, both after SppIP induction, and 6 hours later, sera was collected and the ability of serum samples to block Kv1.3 channels tested by whole-cell patch-clamp.
Sera was taken at various timepoints ranging from 3 hours to 72 hours after the single bolus of LrS235. Peak levels of ShK-235 were detected 6 hours after LrS235 delivery, with the range of functional activity from 3 hours to 48 hours post-gavage (FIG. 8C).
Bioavailability and pharmacokinetics of ShK-235 after oral delivery. Male rats received a single oral gavage of either 1×10^9 cfus LrS235 or an enteric-coated capsule filled with ShK-235. Blood was collected via the saphenous vein at the different time points indicated in the figure, the last blood draw being a terminal cardiac puncture (48). Serum samples were assayed for Kv1.3 block by patch-clamp electrophysiology.

[2] = Pharmacokinetics following oral or subcutaneous administration in healthy and CIA rats; conditions: rat, in vivo
Method: Pharmacokinetics following oral or subcutaneous administration of LrS235. Pharmacokinetics following oral or subcutaneous administration of LrS235 are conducted to determine the efficacy of ShK-235 entry into the circulation after its delivery via LrS235, an oral capsule, or subcutaneous injection, and the duration for which the peptide can be detected in the blood after a single bolus or repeated administration to rats with the CIA model of RA. The circulating levels of ShK-235 are quantified with two complementary and well-established techniques, mass spectrometry and single-cell patch-clamp, as the inventors and others have done with ShK, ShK analogs, and other Kv1.3 channel modulators^6,16,37,47-49,65. Tandem liquid chromatography triple quadrupole mass spectrometry (LC-QQQ-MS) is commonly used to rapidly detect and quantify small molecules and peptides for pharmacokinetics. As a complement, single-cell patch-clamp allows for the detection and quantification of functional peptide. This quantitative method (FIG. 9) has a low pM detection limit for the functional peptide. This technique has been validated and used to detect ShK-235 in the circulation of rats administrated the peptide via a capsule or via LrS235 (FIG. 8). […]

[3] = tested on: CIA and PIA rat models of RA; assay: Early and late treatment of CIA and PIA by LrS235; conditions: in vivo
Text: Early and late treatment of CIA and PIA by LrS235. The objective of these experiments is to define the benefits of LrS235 as an oral delivery system for ShK-235 in reducing joint damage and local and systemic inflammation in rat models of RA and compare its efficacy to that of injected ShK-235 and ShK-235 delivered via an enteric-coated capsule. CIA is induced in Lewis rats by two injections at a week interval of an emulsion of porcine collagen II in incomplete Freund's adjuvant at the base of the tail^36,40,65,66. PIA is induced in DA rats by the single injection of pristane at the base of the tail. Clinical signs of CIA are observed in some aspects 3-6 days after the booster injection and clinical signs of PIA are observed in some aspects 2-3 weeks after the pristane injection. Clinical signs are scored daily based on the number of joints affected and the severity of the swelling, as in FIG. 7A. […]
Rats start receiving daily treatments either at onset of clinical signs (early treatment), or 10 days later, at peak of disease severity (late treatment). […] Rats are monitored daily for body weight and scored for clinical signs of arthritis using a standard scoring method^36,40,65,66 described in herein (FIG. 7A). […] At the end of the trials, animals are euthanized for collection of blood, hind limbs, inguinal lymph nodes, and small and large intestines, and the following is measured: […]

mKv1.3 channels = target: T1, mKv1.3 channels (Mus musculus, UniProt P16390); assay: Whole-cell patch-clamp block of Kv1.3 currents in L929 fibroblasts stably expressing mKv1.3; assay type: cell-based
T1 construct: expressed in transfected cells
T1 sequence (P16390 whole entry): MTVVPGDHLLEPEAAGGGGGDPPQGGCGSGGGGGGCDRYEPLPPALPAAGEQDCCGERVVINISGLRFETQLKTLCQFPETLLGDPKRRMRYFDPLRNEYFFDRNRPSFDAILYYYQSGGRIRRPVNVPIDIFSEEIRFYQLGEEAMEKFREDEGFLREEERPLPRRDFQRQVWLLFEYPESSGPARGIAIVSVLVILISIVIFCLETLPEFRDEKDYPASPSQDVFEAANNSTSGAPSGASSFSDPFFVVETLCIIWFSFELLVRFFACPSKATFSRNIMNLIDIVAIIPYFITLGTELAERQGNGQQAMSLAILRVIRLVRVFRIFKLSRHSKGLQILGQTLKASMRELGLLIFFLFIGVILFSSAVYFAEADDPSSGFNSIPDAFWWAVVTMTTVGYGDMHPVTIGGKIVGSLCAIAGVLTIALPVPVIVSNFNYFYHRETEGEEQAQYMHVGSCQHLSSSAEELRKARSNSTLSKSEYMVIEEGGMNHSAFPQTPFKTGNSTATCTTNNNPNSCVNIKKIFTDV
Method: In the absence of antibodies directed to ShK-235, the inventors used functional assays to identify and quantify ShK-235 expression and secretion into culture supernatants of LrS235. In more detail, the presence of active peptide was assayed by using whole-cell patch-clamp to test the ability of LrS235 supernatants to block Kv1.3 channels in mouse L929 fibroblasts stably expressing mKv1.3 channels. LrS235 and LrGusA were grown to mid-exponential phase and induced for expression of ShK-235 or GusA, and supernatants were processed as described in the materials and methods. […] Culture supernatant from LrS235 and LrGusA was tested for Kv1.3 channel block and the dose-response curve used to calculate the concentration of ShK-235 in supernatants.
Patch-clamp electrophysiology. To determine the concentration of ShK-235 in the LrS235 supernatants and rat sera, a dose-response of ShK-235 block of Kv1.3 was determined by adding known concentrations of the peptide to naïve rat serum and then testing by whole-cell patch-clamp of mouse L929 fibroblasts stably expressing mKv1.3 channels (45) using a PORT-A-PATCH® automated patch-clamp system (Nanion, Livingston, NJ), as described (16, 46). Culture supernatants and serum samples were then assessed with the same technique, and the dose-response curve was used to determine peptide concentration.

CC[C@H](C)[C@@H]1NC(=O)[C@H](CO)NC(=O)[C@H](Cc2c[nH]cn2)NC(=O)[C@H](CCCCN)NC(=O)[C@@H]2CSSC[C@@H]3NC(=O)[C@H]([C@@H](C)O)NC(=O)[C@H](CCCCN)NC(=O)[C@H](CCCNC(=N)N)NC(=O)[C@H](CSSC[C@H](NC(=O)[C@H](CCCNC(=N)N)NC(=O)[C@H](CO)NC(=O)[C@H](CCCCN)NC(=O)[C@@H]4CCCN4C(=O)[C@H]([C@@H](C)CC)NC(=O)[C@H]([C@@H](C)O)NC(=O)[C@H](CC(=O)O)NC(=O)[C@H]([C@@H](C)CC)NC(=O)[C@@H](NC(=O)[C@H](CO)NC(=O)[C@@H](N)CCCNC(=N)N)CSSC[C@@H](C(=O)N[C@@H](C)C(=O)O)NC(=O)[C@H]([C@@H](C)O)NC(=O)CNC3=O)C(=O)N[C@@H]([C@@H](C)O)C(=O)N[C@@H](C)C(=O)N[C@@H](Cc3ccccc3)C(=O)N[C@@H](CCCCN)C(=O)N2)NC(=O)[C@H](Cc2ccccc2)NC(=O)[C@H](CO)NC(=O)[C@H](CC(C)C)NC(=O)[C@H](CCCNC(=N)N)NC(=O)[C@H](Cc2ccc(O)cc2)NC(=O)[C@H](CCCCN)NC1=O [ShK-235]
Serum levels of ShK-235 after enteric-coated capsule ([1]; oral ACRYL-EZE coated capsule filled with 0.3 mg ShK-235): no measurable serum levels | level at time molar ([1]; rat, in vivo, injection of 0.1 mg/kg, read-out: Level detected in the circulation after injection): 0.6 to 0.8 nM | Detection of ShK-235 in the circulation [2]: detected | Effect on incidence and severity of CIA and PIA [3]: reduce the incidence | IC50 (mKv1.3 channels): 0.0693 ± 0.024 nM
